The values that follow come from EP4729061A1, “USE OF AKT INHIBITOR IN PREPARATION OF DRUG FOR PREVENTING OR TREATING BREAST CANCER” (Nanjing Chia Tai Tianqing Pharmaceutical Co., Ltd., priority 2023, dated 2024).

Data set [1] can be described thus: Clinical trial of the compound of Formula (A) tablets as monotherapy: pharmacokinetics. It is filed as in vivo, patients with advanced malignant solid tumors. Particulars: 400mg Monotherapy; for half-life / AUC(0-t) / Cmax / Vd/F: 400 mg. The text has this: All contents of the trial protocol with registration number CTR20211999 on the China Drug Clinical Trial Registration and Information Disclosure Platform and results thereof are incorporated herein by reference.
Study Objectives: To evaluate the safety and tolerability of the compound of Formula (A) in patients with advanced malignant solid tumors (including breast cancer and ovarian cancer) who have failed standard treatment, and to explore the maximum tolerated dose (MTD) of the compound of Formula (A), and determine the recommended phase II dose (RP2D). To evaluate the pharmacokinetic (PK) characteristics of the compound of Formula (A) following a single dose and continuous administration for 21 days in patients with advanced solid tumors. To assess the preliminary efficacy of the compound of Formula (A) in the treatment of advanced solid tumors.
Trial Design: The study was an open-label, single-arm, non-randomized clinical trial focusing on safety, efficacy, and pharmacokinetics. The first part was the dose-finding phase, and the second part was the dose-expansion phase.
A starting dose of 20 mg of the compound of Formula (A) was selected, with successive dose-finding groups set as 20 mg, 50 mg, 100 mg, 200 mg, 300 mg, and 400 mg. The administration regimen included once-daily single-dose administration (with a 7-day washout period) and multiple-dose administration (continuous administration for 21 days, 28 days as one cycle, treatment continued until intolerable toxicity, disease progression, or subject withdrawal).
The dose-expansion phase was initiated after the completion of the dose-finding phase. Based on the results of dose escalation, the dosage for the dose-expansion group was determined, with oral administration once daily (continuous administration for 21 days, 28 days as one cycle, and treatment will be continued until intolerable toxicity, disease progression, or subject withdrawal).
1) Safety and Tolerability: Maximum Tolerated Dose (MTD) and Dose-Limiting Toxicity (DLT); 2) PK Indicators: See Tables 13 and 14 below; 3) Efficacy Indicators: Objective Response Rate (ORR), Disease Control Rate (DCR), Duration of Response (DOR), and Progression-Free Survival (PFS). Table 13. PK Indicators of the compound of Formula (A) monotherapy in the dose-finding phase

Another data set deals with CAMA-1 Cells. Kind of data set: Cell proliferation inhibition, CTG (CelltiterGlo) method, alone or combined with fulvestrant. To be noted: compound alone; for IC50: Homo sapiens, CAMA-1, 168 h, 7 days. It is filed as cell-based. As for the experimental part: a). BT-474 cells were cultured in Hybri-Care medium supplemented with 1% antibiotics and 10% FBS, and incubated in the condition of 37°C with 5% CO2; b). MCF-7 cells were cultured in EMEM medium supplemented with 1% antibiotics, 0.01 mg/mL insulin, and 10% FBS, and incubated in the condition of 37°C with 5% CO2; c). ZR-75-1 cells were cultured in RPMI-1640 medium supplemented with 1% antibiotics and 10% FBS, and incubated in the condition of 37°C with 5% CO2; d). T47D cells were cultured in RPMI-1640 medium supplemented with 1% antibiotics, 0.2 U/mL insulin, and 10% FBS, and incubated in the condition of 37°C with 5% CO2; e) CAMA-1 cells were cultured in EMEM medium supplemented with 1% antibiotics and 10% FBS, and incubated in the condition of 37°C with 5% CO2.
a). Cells were routinely cultured until reaching 80%-90% confluence and when the required cell number was reached, they were harvested; b). Resuspended in the corresponding medium, counted, and prepared into a cell suspension with appropriate density; c). The cell suspension was added to a 384-well plate at 40 µL per well. Table 1. Plating densities of different cell lines
d). The cells were cultured overnight in an incubator at 37°C with 5% CO2 .
a). The compound of Formula (A) was serially diluted 3-fold for 10 concentrations starting from a stock solution of 60 mM (using the monofumarate dihydrate of the compound of Formula (A), with the concentration calculated based on the free base of the compound of Formula (A); the compound of Formula (A) or salt thereof was prepared with reference to the preparation method disclosed in WO2022017448A1); b). […] Cells supplemented with DMSO served as control wells for high reading values; j). Cell-free medium served as control wells for low reading values. […]
a). […] The chemiluminescent signal values were read using an Envision instrument.
Using the inhibition rate data measured by monotherapy or single-concentration combination therapy in Section 2.4, IC50 was calculated with GraphPad Prism 8 software. […]

Setting [2] is: Multiple Doses, n=8, dose-expansion phase.
Setting [3] is: human, in vivo, oral, Single Dose, n=10, dose-finding phase.

Like-named read-outs stand apart in the source and are kept apart here. Bounds are passed on as bounds.

Usually CL/F stands for the apparent clearance, not corrected for the fraction that reaches the circulation. The term half-life denotes the time needed for the level to fall by half in the phase considered. Read a high half-life as slow loss. The term Cmax denotes the maximum level reached in the sampled fluid or tissue. What is called Tmax is the time from dosing to the highest level. What is called IC50 is the point on the concentration scale where inhibition reaches its midpoint. For the molecule `CC(C)NC[C@@H](C(=O)N1CCN(c2ncnc3c2[C@H](C)CC(=O)N3)[C@H]2C[C@H]21)c1ccc(Cl)cc1` [The compound of Formula (A), (R)-4-((1S,6R)-5-((S)-2-(4-chlorophenyl)-3-(isopropylamino)propanoyl)-2,5-diazabicyclo[4.1.0]heptan-2-yl)-5-methyl-5,8-dihydropyrido[2,3-d]pyrimidin-7(6H)-one], in data set [1] (setting [2]), the CLss/F was 155.88 ± 81.87 L/h, the “Cav,ss” value amounted to 131.73 ± 64.21 ng/mL, the “Cmin,ss” value was 33.76 ± 14.66 ng/mL and the “Tmax,ss” value was 3.00 [0,6.00] h. The CL/F in data set [1] (Single Dose, n=10, dose-finding phase) was determined as 186.378 ± 99.471 L/h. In addition, the half-life in data set [1] (human, in vivo, oral, Multiple Doses, n=8, dose-expansion phase) is 12.9 ± 4.19 h. In addition, the AUC(0-t) in data set [1] (human, in vivo, oral, Multiple Doses, n=8, dose-expansion phase, read-out: AUC0-t,ss) came out at 3530 ± 1770 ng·h/mL. The Cmax in data set [1] (human, in vivo, oral, Multiple Doses, n=8, dose-expansion phase, read-out: Cmax,ss) came to 462 ± 245 ng/mL. Besides, the Vd/F in data set [1] (human, in vivo, oral, Multiple Doses, n=8, dose-expansion phase, read-out: Vss/F) was found to be 2880 ± 1670 L. Also, in data set [1] (setting [3]), the half-life was 7.22 ± 1.91 h and the Tmax was found to be 3 h. In addition, the AUC(0-t) in data set [1] (human, in vivo, oral, Single Dose, n=10, dose-finding phase, read-out: AUC0-t) worked out at 2380 ± 1160 ng·h/mL. In data set [1] (human, in vivo, oral, Single Dose, n=10, dose-finding phase, read-out: Cmax), the highest concentration (Cmax) came out at 392 ± 178 ng/mL. In data set [1] (human, in vivo, oral, Single Dose, n=10, dose-finding phase, read-out: Vz/F), the Vd/F was 1920 ± 1000 L. In data set [1] (human, in vivo, oral, Multiple Doses, n=8, dose-expansion phase, read-out: AUC0-τ), the AUC was 3160 ± 1540 ng·h/mL. In addition, the half-maximal inhibitory concentration (IC50) in the data set with CAMA-1 Cells came out at 1130 nM. For the same molecule, the “Maximum Inhibition Rate on CAMA-1 Cells” value in the data set on CAMA-1 Cells (maximum value fitted by GraphPad Prism 8) was determined as 95.43%.

On to `C[C@]12CC[C@@H]3c4ccc(O)cc4C[C@@H](CCCCCCCCC[S+]([O-])CCCC(F)(F)C(F)(F)F)[C@H]3[C@@H]1CC[C@@H]2O` (stereo partly drawn) [Fulvestrant, reference compound], for which, in the data set on CAMA-1 Cells, the half-inhibitory concentration (IC50) was above 100 nM.
